Assay results taken from PMC5540273, “Progress towards a public chemogenomic set for protein kinases and a call for contributions” (PLoS ONE, 2017).

Columns and labels:
Test in all cases: KINOMEscan competition binding
BIKE = BIKE (Homo sapiens, UniProt Q9NSY1); details: read-out: %Inh BIKE
CDK3 = CDK3 (Homo sapiens, UniProt Q00526); details: read-out: %Inh CDK3
CTK = target: T1, CTK (Homo sapiens, UniProt P42679); details: read-out: %Inh CTK
T1 sequence (P42679 1-507): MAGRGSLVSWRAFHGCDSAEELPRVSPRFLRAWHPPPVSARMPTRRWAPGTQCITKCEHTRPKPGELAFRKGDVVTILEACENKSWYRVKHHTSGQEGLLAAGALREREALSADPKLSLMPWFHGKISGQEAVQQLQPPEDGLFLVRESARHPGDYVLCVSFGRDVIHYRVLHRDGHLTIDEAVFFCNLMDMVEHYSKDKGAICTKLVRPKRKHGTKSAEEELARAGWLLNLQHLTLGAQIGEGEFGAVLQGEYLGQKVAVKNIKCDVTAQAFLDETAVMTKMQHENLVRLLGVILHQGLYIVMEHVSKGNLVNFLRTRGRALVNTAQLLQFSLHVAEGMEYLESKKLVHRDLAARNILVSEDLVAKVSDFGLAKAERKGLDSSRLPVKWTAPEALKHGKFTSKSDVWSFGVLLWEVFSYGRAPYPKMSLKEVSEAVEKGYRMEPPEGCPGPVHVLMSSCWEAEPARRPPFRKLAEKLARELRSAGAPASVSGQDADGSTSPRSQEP

FLT1 = FLT1 (Homo sapiens, UniProt P17948); details: read-out: %Inh FLT1
HASPIN = target: T2, HASPIN (Homo sapiens, UniProt Q8TF76); details: read-out: %Inh HASPIN
T2 sequence (Q8TF76 1-798): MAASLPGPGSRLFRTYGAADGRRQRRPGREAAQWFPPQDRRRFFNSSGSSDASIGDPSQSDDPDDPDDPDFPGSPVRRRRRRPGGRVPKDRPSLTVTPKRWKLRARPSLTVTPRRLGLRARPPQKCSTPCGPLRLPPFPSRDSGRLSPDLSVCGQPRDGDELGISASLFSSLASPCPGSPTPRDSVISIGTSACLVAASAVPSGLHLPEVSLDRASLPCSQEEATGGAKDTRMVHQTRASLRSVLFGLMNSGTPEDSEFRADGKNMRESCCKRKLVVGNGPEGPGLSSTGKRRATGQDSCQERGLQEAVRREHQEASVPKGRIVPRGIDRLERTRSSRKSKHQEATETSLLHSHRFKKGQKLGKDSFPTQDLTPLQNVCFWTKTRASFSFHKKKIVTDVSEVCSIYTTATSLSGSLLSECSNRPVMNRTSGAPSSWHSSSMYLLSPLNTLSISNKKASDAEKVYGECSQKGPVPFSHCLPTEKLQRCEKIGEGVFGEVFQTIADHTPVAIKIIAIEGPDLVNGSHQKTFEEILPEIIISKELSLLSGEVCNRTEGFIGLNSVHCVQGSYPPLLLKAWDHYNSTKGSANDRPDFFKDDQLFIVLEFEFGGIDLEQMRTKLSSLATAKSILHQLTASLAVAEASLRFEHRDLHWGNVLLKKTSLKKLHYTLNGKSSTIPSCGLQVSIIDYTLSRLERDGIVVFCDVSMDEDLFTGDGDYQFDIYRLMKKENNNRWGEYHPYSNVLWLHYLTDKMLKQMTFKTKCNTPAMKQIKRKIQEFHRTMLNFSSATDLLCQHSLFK

HUNK = target: T3, HUNK (Homo sapiens, UniProt P57058); details: read-out: %Inh HUNK
T3 sequence (P57058 1-714): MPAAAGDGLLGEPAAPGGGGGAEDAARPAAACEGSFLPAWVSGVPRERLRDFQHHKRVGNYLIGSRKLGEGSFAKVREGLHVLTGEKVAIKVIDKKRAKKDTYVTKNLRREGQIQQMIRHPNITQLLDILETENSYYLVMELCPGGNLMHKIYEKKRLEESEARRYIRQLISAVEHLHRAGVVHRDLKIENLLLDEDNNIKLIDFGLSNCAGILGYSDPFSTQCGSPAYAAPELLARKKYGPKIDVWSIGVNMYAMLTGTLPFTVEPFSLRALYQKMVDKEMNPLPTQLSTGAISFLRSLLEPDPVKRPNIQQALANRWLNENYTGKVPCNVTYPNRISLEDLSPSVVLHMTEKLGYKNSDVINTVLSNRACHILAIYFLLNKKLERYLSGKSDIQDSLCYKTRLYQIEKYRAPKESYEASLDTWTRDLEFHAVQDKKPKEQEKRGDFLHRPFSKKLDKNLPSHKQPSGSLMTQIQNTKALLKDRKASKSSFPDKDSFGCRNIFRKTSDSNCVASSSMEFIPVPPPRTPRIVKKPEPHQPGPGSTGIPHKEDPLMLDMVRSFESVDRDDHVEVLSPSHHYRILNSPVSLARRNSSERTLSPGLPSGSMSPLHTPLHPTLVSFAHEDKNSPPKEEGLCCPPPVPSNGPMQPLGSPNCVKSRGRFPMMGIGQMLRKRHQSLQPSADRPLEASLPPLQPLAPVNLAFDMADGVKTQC

BIKE, sequence (Q9NSY1 whole entry): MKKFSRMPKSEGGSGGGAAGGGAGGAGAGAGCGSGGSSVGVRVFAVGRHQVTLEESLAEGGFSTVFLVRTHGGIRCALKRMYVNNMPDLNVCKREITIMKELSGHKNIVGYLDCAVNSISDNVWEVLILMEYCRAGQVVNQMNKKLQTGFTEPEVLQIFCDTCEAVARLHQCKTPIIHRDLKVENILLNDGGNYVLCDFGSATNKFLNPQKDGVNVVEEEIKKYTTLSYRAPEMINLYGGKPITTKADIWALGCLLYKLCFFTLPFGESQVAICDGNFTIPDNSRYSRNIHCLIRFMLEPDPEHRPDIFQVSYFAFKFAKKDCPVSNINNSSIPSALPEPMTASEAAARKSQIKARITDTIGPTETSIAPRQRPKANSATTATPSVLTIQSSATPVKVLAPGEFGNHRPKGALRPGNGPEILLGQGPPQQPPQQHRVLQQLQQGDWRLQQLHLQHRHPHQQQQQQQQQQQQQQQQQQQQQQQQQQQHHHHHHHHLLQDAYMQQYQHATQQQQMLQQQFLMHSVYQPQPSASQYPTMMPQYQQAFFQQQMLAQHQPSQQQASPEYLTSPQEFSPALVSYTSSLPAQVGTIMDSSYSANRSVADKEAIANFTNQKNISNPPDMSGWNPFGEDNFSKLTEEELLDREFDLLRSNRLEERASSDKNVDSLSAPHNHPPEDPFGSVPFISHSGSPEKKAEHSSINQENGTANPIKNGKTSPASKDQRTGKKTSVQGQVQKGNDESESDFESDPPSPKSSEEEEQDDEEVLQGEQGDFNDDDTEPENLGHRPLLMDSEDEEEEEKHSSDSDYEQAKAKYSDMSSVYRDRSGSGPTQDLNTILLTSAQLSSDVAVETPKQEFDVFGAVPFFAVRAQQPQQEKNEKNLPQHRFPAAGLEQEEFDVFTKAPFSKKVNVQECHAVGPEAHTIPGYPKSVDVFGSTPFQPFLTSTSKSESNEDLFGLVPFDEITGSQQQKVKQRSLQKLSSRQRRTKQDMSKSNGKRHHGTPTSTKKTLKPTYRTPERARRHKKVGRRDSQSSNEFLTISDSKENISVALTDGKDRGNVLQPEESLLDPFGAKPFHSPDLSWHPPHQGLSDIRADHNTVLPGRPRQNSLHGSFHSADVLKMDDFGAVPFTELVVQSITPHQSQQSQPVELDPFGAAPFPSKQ
CDK3, sequence (Q00526 whole entry): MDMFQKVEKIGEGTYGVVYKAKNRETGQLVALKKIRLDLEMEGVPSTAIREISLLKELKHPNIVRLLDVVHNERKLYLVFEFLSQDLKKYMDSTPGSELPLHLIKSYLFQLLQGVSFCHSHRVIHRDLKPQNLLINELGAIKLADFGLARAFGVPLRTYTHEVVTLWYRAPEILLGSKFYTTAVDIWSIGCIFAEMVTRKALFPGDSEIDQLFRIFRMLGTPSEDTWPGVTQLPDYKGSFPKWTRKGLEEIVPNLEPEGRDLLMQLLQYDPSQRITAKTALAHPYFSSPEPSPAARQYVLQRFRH
FLT1, sequence (P17948 27-1338): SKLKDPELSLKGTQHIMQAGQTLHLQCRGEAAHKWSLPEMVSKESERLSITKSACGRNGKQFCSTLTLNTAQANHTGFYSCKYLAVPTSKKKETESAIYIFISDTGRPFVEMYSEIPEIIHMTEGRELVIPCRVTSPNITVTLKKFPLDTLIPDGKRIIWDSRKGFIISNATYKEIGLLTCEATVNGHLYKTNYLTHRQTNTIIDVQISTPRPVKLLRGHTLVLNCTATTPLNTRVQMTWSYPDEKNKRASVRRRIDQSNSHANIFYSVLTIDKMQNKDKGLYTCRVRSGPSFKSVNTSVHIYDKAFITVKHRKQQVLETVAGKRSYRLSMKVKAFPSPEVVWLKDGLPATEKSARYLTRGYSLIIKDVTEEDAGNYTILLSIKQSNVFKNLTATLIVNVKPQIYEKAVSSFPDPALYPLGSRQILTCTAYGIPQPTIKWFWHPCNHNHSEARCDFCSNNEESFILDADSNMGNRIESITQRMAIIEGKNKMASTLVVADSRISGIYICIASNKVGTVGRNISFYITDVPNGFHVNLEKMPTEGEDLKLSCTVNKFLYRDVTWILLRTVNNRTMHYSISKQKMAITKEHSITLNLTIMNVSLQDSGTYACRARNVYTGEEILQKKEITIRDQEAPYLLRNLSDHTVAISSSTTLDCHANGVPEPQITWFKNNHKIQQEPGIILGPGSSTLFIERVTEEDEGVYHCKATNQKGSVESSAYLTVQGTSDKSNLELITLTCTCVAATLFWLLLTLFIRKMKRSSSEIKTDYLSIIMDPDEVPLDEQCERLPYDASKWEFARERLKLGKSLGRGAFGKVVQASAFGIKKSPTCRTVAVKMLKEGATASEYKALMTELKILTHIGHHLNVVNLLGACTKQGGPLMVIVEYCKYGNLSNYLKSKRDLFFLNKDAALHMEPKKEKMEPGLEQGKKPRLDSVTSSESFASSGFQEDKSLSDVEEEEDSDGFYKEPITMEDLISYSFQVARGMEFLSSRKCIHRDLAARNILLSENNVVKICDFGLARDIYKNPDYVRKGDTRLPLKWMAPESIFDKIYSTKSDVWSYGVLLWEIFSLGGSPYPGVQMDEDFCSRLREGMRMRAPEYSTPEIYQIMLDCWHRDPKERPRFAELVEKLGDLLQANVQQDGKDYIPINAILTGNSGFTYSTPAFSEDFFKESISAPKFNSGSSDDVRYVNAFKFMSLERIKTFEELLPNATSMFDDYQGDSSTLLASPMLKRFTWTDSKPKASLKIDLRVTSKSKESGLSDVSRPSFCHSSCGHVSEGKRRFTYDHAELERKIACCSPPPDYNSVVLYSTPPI

| SMILES | inhibition at 1 µM (BIKE) [%] | inhibition at 1 µM (CDK3) [%] | inhibition at 1 µM (CTK) [%] | inhibition at 1 µM (FLT1) [%] | inhibition at 1 µM (HASPIN) [%] | inhibition at 1 µM (HUNK) [%] |
| --- | --- | --- | --- | --- | --- | --- |
| Cn1cc(-c2cnc(N)c3c(-c4ccc5c(c4)CCN5C(=O)Cc4ccccc4)csc23)cn1 [UNC10225012A] | 0 | 1 | 62 | 79 | 0 | 0 |
| CS(=O)(=O)Cc1ccc(Nc2nccc(-c3c(-c4cccc(NC(=O)C5CCCCC5)c4)nn4ncccc34)n2)cc1 [UNC10225159A] | 1 | 0 | 38 | 63 | 17 | 7 |
| Cc1ccc(NC(=O)Nc2cccc(C(F)(F)F)c2)cc1 [UNC10225187A] | 4 | 0 | 0 | 23 | 12 | 0 |
| COc1cccc(OC)c1C(=O)Nc1cccc(-c2nn3ccccc3c2-c2ccnc(Nc3cccc(F)c3)n2)c1 [UNC10225310A] | 0 | 0 | 21 | 32 | 0 | 15 |
| O=c1cc(N2CCOCC2)nc2n(Cc3cccc(Cl)c3Cl)c(C3CC3)nn12 [UNC10225469A] | 0 | 5 | 0 | 6 | 0 | 0 |
